Data as given in patent publication US12522607B2, “Substituted pyrazolo[3,4-d]pyrimidines as wee-1 inhibitors” (WIGEN BIOMEDICINE TECHNOLOGY (SHANGHAI) CO., LTD., priority 2020, dated 2026).
pIC50: −log10 of the molar value.

Tests used:
Wee-1 kinase = target: T1, Wee-1 kinase (Homo sapiens, UniProt P30291); experiment: Inhibitory activity against Wee-1 kinase (Lanthra Screen Wee-1 kinase kit, Tracer 178); assay type: binding; conditions: Wee-1 kinase 5 nM, Tracer 178 50 nM, 1 h room temperature
T1 construct: purchased Invitrogen
T1 sequence (P30291 whole entry): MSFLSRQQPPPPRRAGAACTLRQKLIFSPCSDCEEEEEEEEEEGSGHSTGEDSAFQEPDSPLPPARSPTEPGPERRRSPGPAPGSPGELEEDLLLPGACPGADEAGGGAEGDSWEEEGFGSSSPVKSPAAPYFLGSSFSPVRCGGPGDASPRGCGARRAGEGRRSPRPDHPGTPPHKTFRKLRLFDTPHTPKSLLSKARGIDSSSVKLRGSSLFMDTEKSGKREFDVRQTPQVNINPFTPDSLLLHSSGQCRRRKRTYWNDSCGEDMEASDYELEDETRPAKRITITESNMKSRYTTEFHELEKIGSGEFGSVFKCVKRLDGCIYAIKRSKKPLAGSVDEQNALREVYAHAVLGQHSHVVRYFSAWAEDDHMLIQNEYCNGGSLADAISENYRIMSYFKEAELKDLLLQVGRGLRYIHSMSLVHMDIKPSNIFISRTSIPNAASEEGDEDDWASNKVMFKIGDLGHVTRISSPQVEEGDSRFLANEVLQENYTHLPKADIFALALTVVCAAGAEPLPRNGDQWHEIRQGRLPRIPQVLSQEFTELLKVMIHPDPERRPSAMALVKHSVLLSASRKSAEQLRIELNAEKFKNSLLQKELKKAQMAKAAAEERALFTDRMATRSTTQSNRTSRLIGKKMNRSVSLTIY
Procedure, shortened: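 LanthaScreen binding format: Wee-1 kinase (5 nM final) with Eu-anti-GST antibody (2 nM final) and kinase Tracer 178 (50 nM final), compounds serially diluted in DMSO. 1 h at room temperature before reading. IC50 relative to DMSO control.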

HT29 cells = experiment: Antiproliferative activity against HT29 cells (Cell Titer-Lumi, ATP content); assay type: cell-based; conditions: Homo sapiens, HT-29, 72 after compound addition, read-out: HT-29 cells Anti-proliferative activity (IC50 for the inhibition against HT-29 cell growth)
Procedure, shortened: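 3000 cells per well, allowed to adhere overnight, then exposed to a gradient dilution of compound for 72 (units as printed). Cellular ATP read by luminescence (Cell Titer-Lumi) as a growth measure; IC50 for growth inhibition calculated.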

| Structure (SMILES) | pIC50 (Wee-1 kinase) | pIC50 (HT29 cells) |
| --- | --- | --- |
| C=CCn1c(=O)c2cnc(Nc3ccc(N4CCN(C)CC4)c(C)c3)nc2n1-c1cc(F)c(=O)n(C(C)C)c1 [Compound 312] | ≥ 7.52 | ≥ 6.00 |
| C=CCn1c(=O)c2cnc(Nc3ccc(C4CCN(C)CC4)c(C)c3)nc2n1-c1cc(F)c(=O)n(C(C)C)c1 [Compound 313] | ≥ 7.52 | ≥ 6.00 |
| C=CCn1c(=O)c2cnc(Nc3ccc4c(c3)CN(C)CC43CC3)nc2n1-c1cc(F)c(=O)n(C(C)C)c1 [Compound 314] | ≥ 7.52 | ≥ 6.00 |
| CCn1c(=O)c2cnc(Nc3ccc(N4CCN(C)CC4)cc3)nc2n1-c1cc(F)c(=O)n(C(C)C)c1 [Compound 315] | ≥ 7.52 | ≥ 6.00 |
| CCn1c(=O)c2cnc(Nc3ccc(N4CCN(C)CC4)c(C)c3)nc2n1-c1cc(F)c(=O)n(C(C)C)c1 [Compound 316] | ≥ 7.52 | ≥ 6.00 |
| CCn1c(=O)c2cnc(Nc3ccc(C4CCN(C)CC4)c(C)c3)nc2n1-c1cc(F)c(=O)n(C(C)C)c1 [Compound 317] | ≥ 7.52 | ≥ 6.00 |
| CCn1c(=O)c2cnc(Nc3ccc4c(c3)CN(C)CC43CC3)nc2n1-c1cc(F)c(=O)n(C(C)C)c1 [Compound 318] | ≥ 7.52 | ≥ 6.00 |
| CC(C)n1cc(-n2c3nc(Nc4ccc(N5CCN(C)CC5)cc4)ncc3c(=O)n2C(C)C)cc(F)c1=O [Compound 319] | ≥ 7.52 | ≥ 6.00 |
| Cc1cc(Nc2ncc3c(=O)n(C(C)C)n(-c4cc(F)c(=O)n(C(C)C)c4)c3n2)ccc1N1CCN(C)CC1 [Compound 320] | ≥ 7.52 | ≥ 6.00 |
| Cc1cc(Nc2ncc3c(=O)n(C(C)C)n(-c4cc(F)c(=O)n(C(C)C)c4)c3n2)ccc1C1CCN(C)CC1 [Compound 321] | ≥ 7.52 | ≥ 6.00 |
| CC(C)n1cc(-n2c3nc(Nc4ccc5c(c4)CN(C)CC54CC4)ncc3c(=O)n2C(C)C)cc(F)c1=O [Compound 322] | ≥ 7.52 | ≥ 6.00 |
| CC(C)n1cc(-n2c3nc(Nc4ccc(N5CCN(C)CC5)cc4)ncc3c(=O)n2C2CC2)cc(F)c1=O [Compound 323] | ≥ 7.52 | ≥ 6.00 |
| Cc1cc(Nc2ncc3c(=O)n(C4CC4)n(-c4cc(F)c(=O)n(C(C)C)c4)c3n2)ccc1N1CCN(C)CC1 [Compound 324] | ≥ 7.52 | ≥ 6.00 |
| Cc1cc(Nc2ncc3c(=O)n(C4CC4)n(-c4cc(F)c(=O)n(C(C)C)c4)c3n2)ccc1C1CCN(C)CC1 [Compound 325] | ≥ 7.52 | ≥ 6.00 |
| CC(C)n1cc(-n2c3nc(Nc4ccc5c(c4)CN(C)CC54CC4)ncc3c(=O)n2C2CC2)cc(F)c1=O [Compound 326] | ≥ 7.52 | ≥ 6.00 |
| C=CCn1c(=O)c2cnc(Nc3ccc(N4CCN(C)CC4)c(C)c3)nc2n1-c1ccc(=O)n(C(C)(C)C)c1 [Compound 327] | ≥ 7.52 | ≥ 6.00 |
| C=CCn1c(=O)c2cnc(Nc3ccc(C4CCN(C)CC4)c(C)c3)nc2n1-c1ccc(=O)n(C(C)(C)C)c1 [Compound 328] | ≥ 7.52 | ≥ 6.00 |
| C=CCn1c(=O)c2cnc(Nc3ccc4c(c3)CN(C)CC43CC3)nc2n1-c1ccc(=O)n(C(C)(C)C)c1 [Compound 329] | ≥ 7.52 | ≥ 6.00 |
| CCn1c(=O)c2cnc(Nc3ccc(N4CCN(C)CC4)cc3)nc2n1-c1ccc(=O)n(C(C)(C)C)c1 [Compound 330] | ≥ 7.52 | ≥ 6.00 |
| CCn1c(=O)c2cnc(Nc3ccc(N4CCN(C)CC4)c(C)c3)nc2n1-c1ccc(=O)n(C(C)(C)C)c1 [Compound 331] | ≥ 7.52 | ≥ 6.00 |
| CCn1c(=O)c2cnc(Nc3ccc(C4CCN(C)CC4)c(C)c3)nc2n1-c1ccc(=O)n(C(C)(C)C)c1 [Compound 332] | ≥ 7.52 | ≥ 6.00 |
| CCn1c(=O)c2cnc(Nc3ccc4c(c3)CN(C)CC43CC3)nc2n1-c1ccc(=O)n(C(C)(C)C)c1 [Compound 333] | ≥ 7.52 | ≥ 6.00 |
| CC(C)n1c(=O)c2cnc(Nc3ccc(N4CCN(C)CC4)cc3)nc2n1-c1ccc(=O)n(C(C)(C)C)c1 [Compound 334] | ≥ 7.52 | ≥ 6.00 |
